# Assay results: patent publication US20190046490A1, “METHODS OF TREATING LACTOSE INTOLERANCE” (Nogra Pharma Limited, priority 2016, published 2019)
# “And” between values parts separate entries of the source, which are not always exact repeats. Identical values can stand only once. “Also recorded” adds a separate entry of the source.
# What was measured:
# LCT mRNA = experiment: Quantitative PCR of LCT mRNA expression in Caco-2 cells; type: cell-based, human
# Description: (§1) Caco-2 (colonic adenocarcinoma) cells were grown in Dulbecco's Modified Eagle's Medium (DMEM, Invitrogen, Life Technologies, Cergy-Pontoise, France) supplemented with 20% foetal calf serum (FCS, Dutscher, Brumath, France), 1% penicillin-streptomycin (5 ml/l) (Invitrogen, Life technologies) and 1% non-essential amino acids (5 ml/l) (Invitrogen, Life technologies). All cell lines were cultured as confluent monolayers at 37° C. in a controlled, 5% CO2 atmosphere.
# (§2) For cell stimulations, 1×10^6 cells per well were seeded in 6-well plates. Cells were serum deprived for 16 hours prior to stimulation in order to synchronize the cells. Cells were treated with GED (Nogra Pharma Ltd, Ireland), pioglitazone (1 μM, Sigma-Aldrich) or CLA (various concentrations, Sigma-Aldrich). When necessary, the DMSO vehicle (Sigma-Aldrich) was used as control. After 24 hours of stimulation, cells were washed three times with sterile PBS before RNA extraction. Cell stimulations were performed in 4 replicates for microarray analysis and in 3, 4 or 6 replicates for other stimulations.
# (§3) Cells were lysed with lysis buffer (RA1, Macherey-Nagel) containing 1% β-mercaptoethanol. Total RNA was extracted with a Nucleospin RNA kit (Macherey-Nagel, Hoerdt, France). After RNAse inactivation, total RNA was cleaned of genomic DNA traces by DNAse treatment and eluted in RNAse-free, DEPC-water. The purity of the RNA was evaluated by UV spectroscopy on a Nanodrop system (Nyxor Biotech, Paris, France) from 220 to 350 nm. Before microarray experiments, RNAs were also profiled on an Agilent 2100 bioanalyzer. One μg of total RNA with a minimum concentration of 50 ng/μl was used in the microarray and qRT-PCR analysis.
# (§4) Expression of genes of interest was quantified by quantitative PCR (qPCR) of corresponding reverse transcribed mRNA. One μg of total RNA was reverse-transcribed into cDNA using the High Capacity cDNA Archive kit (Applied Biosystems). Amplification was performed using an ABI PRISM 7000 sequence detection system (Applied Biosystem) using Power SYBR® Green PCR master Mix (Applied Biosystem). Primer pairs for each human transcript were chosen with qPrimer depot software (at primerdepot.nci.nih.gov.). Quantification of qPCR signals was performed using ΔCt relative quantification method using GAPDH as a reference gene for human and rat samples and β-Actin for mouse samples. Values were represented in terms of relative quantity of mRNA level variation or fold increase compared to control conditions.
# LCT [1] = experiment: LCT mRNA and LCT activity in duodenum and jejunum of rats after 5 days oral gavage; type: in vivo, Sprague Dawley rats
# Description: as §4
# (§5) Lactase activity was evaluated by using a glucose oxidase method (Glucose Assay Kit, Sigma). This lactase assay is based on the measurement of the amount of glucose produced following the action of lactase by incubating samples with a lactose buffer solution (0.056 mol/l lactose in a 0.1 mol/l Na-maleate buffer). For Caco-2 cells, lactase activity was determined directly from the cell monolayer. After extensive washing, the cell monolayer was incubated with lactose buffer for one hour at 37° C. The supernatant was recovered, 50 μl were diluted with 100 μl of glucose oxidase reagent and incubated at 37° C. for 1 hour. The reaction was stopped with 100 μl of H2SO4 and read by spectrophotometry at 450 nm. When lactase activity was determined from intestinal sample, tissue samples were first dounce-homogenized in 0.9% NaCl on crushed ice. These homogenates were then diluted in 0.9% NaCl ( 1/500) and 50 μl of dilution were incubated with lactose buffer and used to determine lactase activity. For each experiment, the background attributed to the remaining glucose in the samples was measured by incubating cells or cell extracts in lactose-free buffer.
# To determine whether CLA induces LCT expression and activity in vivo, Sprague Dawley rats were fed a control diet and administered either carboxymethyl cellulose (CMC; 0.5%), CLA, or GED for 5 days, after which levels of PPARγ mRNA, LCT mRNA, and LCT activity were measured. CLA was administered at 200 mg/kg/day by oral gavage, and GED was administered at 30 mg/kg/day by oral gavage (FIG. 21A).
# LCT activity = experiment: Lactase activity in Caco-2 cells (glucose oxidase method); type: cell-based, human; conditions: Caco-2 cells, 30 mM
# Description: as §5
# LCT [2] = experiment: LCT mRNA expression and activity in proximal small intestine of rats after oral GED; type: in vivo; conditions: weaned Sprague-Dawley rats, 30 mg/kg daily by gavage for 7 days
# Description: as §4
# (§6) Lactase activity was evaluated by using a glucose oxidase method (Glucose Assay Kit, Sigma). […] For Caco-2 cells, lactase activity was determined directly from the cell monolayer. […] The reaction was stopped with 100 μl of H2SO4 and read by spectrophotometry at 450 nm. When lactase activity was determined from intestinal sample, tissue samples were first dounce-homogenized in 0.9% NaCl on crushed ice. […] For each experiment, the background attributed to the remaining glucose in the samples was measured by incubating cells or cell extracts in lactose-free buffer. […]
# LCT gene = experiment: Transcriptome microarray analysis of LCT mRNA expression in Caco-2 cells treated with PPARγ modulators; type: cell-based, human; conditions: vs unstimulated cells
# Description: as §1, §2, §3
# Dual-colour gene expression microarrays were used to compare the cRNA from the samples. 44,000 genes were screened. The RNAs from the samples were first reverse-transcribed into cDNA (Affinity-Script RT, Agilent), which were then used as the substrate for the synthesis and amplification of cRNA by T7 RNA polymerase in the presence of cyanine 3-CTP for the CTL sample (green fluorescence) and cyanine 5-CTP for the PPAR-γ y modulator sample (red fluorescence). The two-labelled cRNAs were mixed, hybridized on the same array (G4851A Agilent 8×44K) and then scanned (with an Agilent G2505B scanner). Fluorescence was visualized after laser excitation and the relative intensities of the two fluorophores were expressed as a ratio, in order to yield the over- or under-expression status of each gene (using GeneSpring software (Agilent)). This analysis was performed for each PPAR-γ modulator.
# LCT [3] = experiment: LCT mRNA expression and activity in proximal small intestine of mice after oral GED; type: in vivo; conditions: weaned C57BL/6 mice, 30 mg/kg daily by gavage for 7 days
# Description: as §4, §6
# [4] = oral gavage 5 days, GED 30 mg/kg/day, CLA 200 mg/kg/day
structure (smiles),measurement,setting,value
"COC(Cc1ccc(N)cc1)C(=O)O (stereo not shown) [GED, 3-(4′-aminophenyl)2-methoxypropionic acid]","LCT mRNA gene expression relative to unstimulated cells, dose-response","LCT mRNA; 0.1 mM, 1 mM, and 30 mM",increased
same,LCT mRNA expression relative to control (qPCR),"LCT mRNA; 30 mM, 24 hours, normalized to GAPDH",Significant increases; also recorded: induction
same,LCT activity in jejunal tissue compared to CMC control,LCT [1]; 30 mg/kg/day oral gavage 5 days,significant increase
same,LCT activity in duodenal tissue compared to CMC control,LCT [1]; [4],significant increase
same,LCT mRNA expression in duodenal tissue relative to CMC control,LCT [1]; [4],significant increase
same,LCT mRNA expression in jejunal tissue relative to CMC control,LCT [1]; [4],significant increase
same,LCT activity relative to control cells,LCT activity,significant increase; also recorded: significantly upregulated
same,LCT activity in the proximal part of the small intestine,LCT [2],significantly increased
same,LCT expression in the proximal part of the small intestine,LCT [2],significantly increased
same,Fold Lactase RNA,LCT gene; 1 mM,5.28 fold and 5.29 fold
same,Fold Lactase RNA,LCT gene; 30 mM,8.28 fold
same,LCT activity in the proximal part of the small intestine,LCT [3],significantly increased
same,LCT expression in the proximal part of the small intestine,LCT [3],significantly increased
